These results are taken from PubChem BioAssay (NCI).

Test systems include CCRF-CEM leukemia; HL-60(TB) leukemia; K-562 leukemia; M14 melanoma; OVCAR-4 ovarian; SK-MEL-28 melanoma; SK-MEL-5 melanoma; T-47D breast; UACC-62 melanoma; NCI-H460 lung; SK-OV-3 ovarian.
Holding throughout (test): inhibition of tumour cell growth, NCI panel, 48 h

Values joined by “and” are separate entries in the source; they are usually repeats but may differ in a detail not shown here. Identical values can stand only once.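 In this assay, cells in 96-well plates receive the compound at five concentrations for 48 hours. Endpoints are linearly interpolated between the surrounding concentrations. GI50 marks 50% less growth. TGI is the concentration that stops growth completely.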 A value given as a limit tells only on which side of the number the result lay.

Regarding `Cc1c(S(=O)(=O)/N=C(\NO)Nc2ccc(Cl)c(Cl)c2)sc2ccc(Cl)cc12`, the TGI with CCRF-CEM leukemia was over 100 µM; with HL-60(TB) leukemia, 77.3 µM; in the assay with K-562 leukemia it was 71.4 µM; in the assay on M14 melanoma, 44.1 µM; with OVCAR-4 ovarian it was 32.3 µM; in the assay with SK-MEL-28 melanoma, 42.5 µM. Also, the values for the TGI in the assay on SK-MEL-5 melanoma, with T-47D breast and with UACC-62 melanoma were 31.5 µM, 36.7 µM and 37.2 µM, respectively.

With `NC(N)=NCCC[C@H](N)C(=O)NCC(=O)N[C@@H](CC(=O)O)c1ncc(NC(=O)C(F)(F)F)o1`, the TGI in the assay on CCRF-CEM leukemia, in the assay with HL-60(TB) leukemia, with K-562 leukemia, in the assay with M14 melanoma, in the assay with NCI-H460 lung and in the assay on OVCAR-4 ovarian was over 25 µM each time. Besides, the TGI with SK-MEL-28 melanoma, in the assay on SK-MEL-5 melanoma, with SK-OV-3 ovarian, in the assay with T-47D breast and in the assay with UACC-62 melanoma was over 25 µM each time.

For the compound `Cn1cc(NC(=O)c2cc(NC(=O)CN=C(N)N)cn2C)cc1C(=O)NCCC(=N)N`, the TGI in the assay on CCRF-CEM leukemia, in the assay with HL-60(TB) leukemia, in the assay with K-562 leukemia, in the assay on M14 melanoma, in the assay with NCI-H460 lung and in the assay with OVCAR-4 ovarian was over 100 µM throughout. For the same compound, the TGI in the assay with SK-MEL-28 melanoma, in the assay on SK-MEL-5 melanoma, with SK-OV-3 ovarian, in the assay on T-47D breast and in the assay with UACC-62 melanoma was over 100 µM each time.

Take `O=C(NI1OC(=O)c2ccccc21)c1ccc(Cl)cc1`: the TGI in the assay on CCRF-CEM leukemia, with HL-60(TB) leukemia, in the assay on K-562 leukemia, with M14 melanoma, in the assay with NCI-H460 lung and with OVCAR-4 ovarian was over 100 µM each time. In addition, the TGI in the assay with SK-MEL-28 melanoma, in the assay with SK-MEL-5 melanoma, in the assay on SK-OV-3 ovarian, in the assay with T-47D breast and in the assay on UACC-62 melanoma was over 100 µM in each case.

For the compound `CC1=NNC(N)=N/C1=C\C(Sc1ccc(Cl)cc1)c1ccc([N+](=O)[O-])cc1` (stereo not drawn), the TGI in the assay with CCRF-CEM leukemia is over 100 µM; in the assay with HL-60(TB) leukemia, 76.4 µM; in the assay with K-562 leukemia, over 100 µM; in the assay with M14 melanoma, over 100 µM; in the assay on NCI-H460 lung it was over 100 µM; with OVCAR-4 ovarian, over 100 µM. Moreover, the TGI in the assay with SK-MEL-28 melanoma, with SK-MEL-5 melanoma, in the assay with SK-OV-3 ovarian, in the assay on T-47D breast and in the assay on UACC-62 melanoma was over 100 µM each time.

For the compound `Cc1ccc(SCC(CF)OC(C)n2cnc3c(=O)[nH]c(N)nc32)cc1` (stereo not drawn), the TGI in the assay on CCRF-CEM leukemia, with HL-60(TB) leukemia, in the assay on M14 melanoma, in the assay on NCI-H460 lung, with OVCAR-4 ovarian and in the assay with SK-MEL-28 melanoma was over 100 µM each time. The TGI with SK-MEL-5 melanoma is 47.6 µM; in the assay on SK-OV-3 ovarian it was over 100 µM; with T-47D breast, over 100 µM; in the assay on UACC-62 melanoma, over 100 µM.

For `CCN(CC)CCNc1nc2ccc([N+](=O)[O-])cc2[n+]([O-])n1`, the TGI with CCRF-CEM leukemia came to 85.3 µM; with HL-60(TB) leukemia, 17.9 µM; with K-562 leukemia, 54.3 µM; in the assay with M14 melanoma, 41.2 µM; with NCI-H460 lung, 56.8 µM; with OVCAR-4 ovarian, 26.5 µM. Moreover, the TGI is over 100 µM in the assay with SK-MEL-28 melanoma, 22.3 µM in the assay with SK-MEL-5 melanoma, 40.6 µM in the assay with T-47D breast and 35 µM with UACC-62 melanoma.

For `CSc1ccc2c(cc1=O)[C@@H](NC(=O)c1ccc(N)cc1)CCc1cc(O)c(O)c(O)c1-2`, the TGI in the assay with CCRF-CEM leukemia was over 100 µM; in the assay with HL-60(TB) leukemia, over 75 µM; in the assay on K-562 leukemia, over 100 µM; with M14 melanoma, 27.9 µM and 36.5 µM; with NCI-H460 lung, 29.6 µM and 49.7 µM; in the assay on OVCAR-4 ovarian, 34.1 µM and 54 µM. Also, the TGI was over 100 µM in the assay on SK-MEL-28 melanoma; 45.5 µM and 28.7 µM in the assay on SK-MEL-5 melanoma; over 100 µM in the assay on SK-OV-3 ovarian; over 100 µM in the assay with T-47D breast; over 100 µM with UACC-62 melanoma. The GI50 in the assay on HL-60(TB) leukemia is over 75 µM; with M14 melanoma, 13.5 µM and 5.66 µM; in the assay with SK-MEL-5 melanoma it was 21.1 µM and 6.63 µM; in the assay on UACC-62 melanoma, 21.5 µM and 7.58 µM.

Turning to `CSc1ncnc2c1ncn2C1CC(Oc2ccc(C)cc2)C(COc2ccc(C)cc2)O1` (stereo not drawn), the TGI in the assay on CCRF-CEM leukemia, in the assay with HL-60(TB) leukemia, in the assay with M14 melanoma, in the assay with NCI-H460 lung, with OVCAR-4 ovarian and with SK-MEL-28 melanoma was over 100 µM throughout. Also, the TGI in the assay with SK-MEL-5 melanoma, with SK-OV-3 ovarian, with T-47D breast and with UACC-62 melanoma was over 100 µM each time.

Consider `O=c1[nH]nc(-c2ccccc2)c2[nH]c3c4ccccc4ccc3c12`, for which the TGI in the assay with CCRF-CEM leukemia, in the assay on HL-60(TB) leukemia, in the assay on K-562 leukemia, in the assay on M14 melanoma, in the assay on NCI-H460 lung and in the assay with SK-MEL-5 melanoma was over 100 µM in each case. The TGI with SK-OV-3 ovarian, with T-47D breast and in the assay on UACC-62 melanoma was over 100 µM in each case.

On to `O=C1CSC(c2cccc(Oc3ccccc3)c2)N1c1ccc(Cl)cc1` (stereo not drawn), for which the TGI in the assay with CCRF-CEM leukemia is over 100 µM; with HL-60(TB) leukemia, over 100 µM; in the assay with K-562 leukemia, 69.9 µM; in the assay with M14 melanoma, over 100 µM; in the assay with NCI-H460 lung, 41.1 µM; with OVCAR-4 ovarian, over 100 µM. Also, the TGI is over 100 µM with SK-MEL-28 melanoma; 25.2 µM in the assay on SK-MEL-5 melanoma; over 100 µM in the assay on SK-OV-3 ovarian; 91.9 µM in the assay on T-47D breast; 34.2 µM in the assay with UACC-62 melanoma.

For the compound `Nc1cc2[nH]c(=O)c(=O)[nH]c2cc1N`, the TGI in the assay on CCRF-CEM leukemia, in the assay on HL-60(TB) leukemia, in the assay with K-562 leukemia, with NCI-H460 lung, with OVCAR-4 ovarian and in the assay with SK-MEL-28 melanoma was over 100 µM in each case. The TGI in the assay with SK-MEL-5 melanoma, with SK-OV-3 ovarian, in the assay with T-47D breast and in the assay with UACC-62 melanoma was over 100 µM each time.
